Literature values in patent publication US20250295156A1, “LOADED GRANULES, THEIR PROCESS OF PRODUCTION AND THEIR USES” (Evie SA, priority 2019, published 2025).

Assays:
[1] = humans, orally; no reported psychomotor slowing, negative mood effects, or vital sign abnormalities (Bergamaschi et al., 2011)
cannabinoid CB2 receptor = cannabinoid CB2 receptor (Homo sapiens, UniProt P34972)
Chain of cannabinoid CB2 receptor (P34972 whole entry): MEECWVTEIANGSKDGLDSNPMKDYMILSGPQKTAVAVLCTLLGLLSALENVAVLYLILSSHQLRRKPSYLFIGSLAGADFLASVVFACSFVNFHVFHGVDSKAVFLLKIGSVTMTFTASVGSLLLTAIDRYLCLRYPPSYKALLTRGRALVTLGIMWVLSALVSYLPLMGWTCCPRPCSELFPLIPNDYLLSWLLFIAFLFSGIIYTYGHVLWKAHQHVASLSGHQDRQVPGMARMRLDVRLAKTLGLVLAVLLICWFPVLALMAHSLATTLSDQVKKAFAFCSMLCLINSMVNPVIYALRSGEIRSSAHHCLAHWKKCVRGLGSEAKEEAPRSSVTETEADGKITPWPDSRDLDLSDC

C=C(C)[C@@H]1CCC(C)=C[C@H]1c1c(O)cc(CCCCC)cc1O [Cannabidiol]
well tolerated dose [1]: up to 1500 mg/day
affinity for CB2 receptor (cannabinoid CB2 receptor): very low affinity
